Data published in ChEMBL document CHEMBL5584334, “Discovery of a Covalent Inhibitor of Pro-Caspase-1 Zymogen Blocking NLRP3 Inflammasome Activation and Pyroptosis” (J Med Chem, 2024).
The source made the active and inactive calls. The rule behind the calls is not given here.

What was measured:
[1] = tested on: THP-1; experiment: Effect on pro caspase-5 expression in human THP-1 cells at 2 uM pretreated with pam3CSK4 for 3 hrs followed by compound addition for 30 mins prior to cytosolic LPS stimulation for 16 hrs by ELISA; assay type: functional, cell-based; conditions: time 16.5 hrs
[2] = tested on: Mus musculus; experiment: Anti-inflammatory activity in MSU/C18:0 free fatty acid induced ip dosed Casp1 knockout Kunming mouse model of gouty arthritis assessed as reduction in foot swelling preadministered with compound for 30 mins followed by MSU/C18:0 free fatty acid injection and measured after 24 hrs; assay type: functional, organism-based; conditions: time 24.5 hrs
[3] = tested on: THP-1; experiment: Inhibition of p20 fragment of caspase 1 protein expression in LPS/ATP stimulated human THP-1 cells supernatant by Western blotting analysis; assay type: functional, cell-based
[4] = target: NACHT, LRR and PYD domains-containing protein 3 (Mus musculus) (UniProt Q8R4B8); experiment: Inhibition of NLRP3 inflammasome activation activation in LPS/nigericin stimulated mouse J774.A1 cells assessed as reduction in IL-1beta production pretreated with LPS for 3 hrs prior to compound addition for 30 mins followed by nigericin addition and measured after 45 mins by ELISA; assay type: cell-based; conditions: dose 0.001-2000 nM, time 75.0 min
Chain of NACHT, LRR and PYD domains-containing protein 3 (Mus musculus) (Q8R4B8 whole entry, the tested form may be a part): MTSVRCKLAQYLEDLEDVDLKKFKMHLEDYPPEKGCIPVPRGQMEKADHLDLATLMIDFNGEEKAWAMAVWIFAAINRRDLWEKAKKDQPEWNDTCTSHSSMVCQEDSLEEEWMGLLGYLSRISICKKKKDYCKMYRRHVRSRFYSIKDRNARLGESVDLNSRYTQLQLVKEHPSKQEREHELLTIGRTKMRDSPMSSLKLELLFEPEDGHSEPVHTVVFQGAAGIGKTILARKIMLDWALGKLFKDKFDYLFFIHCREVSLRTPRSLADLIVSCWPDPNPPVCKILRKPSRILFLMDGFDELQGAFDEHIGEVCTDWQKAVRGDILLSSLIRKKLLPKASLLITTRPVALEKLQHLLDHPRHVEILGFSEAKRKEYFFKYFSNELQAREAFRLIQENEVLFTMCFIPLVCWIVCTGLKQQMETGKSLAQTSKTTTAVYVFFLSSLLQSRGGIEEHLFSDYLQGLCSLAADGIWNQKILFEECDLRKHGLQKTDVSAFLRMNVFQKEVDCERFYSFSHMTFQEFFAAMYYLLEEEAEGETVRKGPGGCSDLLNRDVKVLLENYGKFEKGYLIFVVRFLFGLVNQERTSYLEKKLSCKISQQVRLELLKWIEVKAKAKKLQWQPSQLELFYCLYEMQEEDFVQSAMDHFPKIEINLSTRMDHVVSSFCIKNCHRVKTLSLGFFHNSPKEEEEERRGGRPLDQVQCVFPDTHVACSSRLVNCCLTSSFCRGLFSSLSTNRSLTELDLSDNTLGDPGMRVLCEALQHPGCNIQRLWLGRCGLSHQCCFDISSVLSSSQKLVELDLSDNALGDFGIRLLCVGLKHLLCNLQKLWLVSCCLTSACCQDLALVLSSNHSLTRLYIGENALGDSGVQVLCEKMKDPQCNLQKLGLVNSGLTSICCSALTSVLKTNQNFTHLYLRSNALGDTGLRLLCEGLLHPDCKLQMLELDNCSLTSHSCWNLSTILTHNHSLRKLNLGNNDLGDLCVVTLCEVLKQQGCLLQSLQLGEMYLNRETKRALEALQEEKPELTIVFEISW

[5] = tested on: J774.A1; experiment: Cytotoxicity against mouse J774.A1 cells at 2 uM incubated for 1 to 12 hrs by CCK-8 method; assay type: toxicity, cell-based; conditions: j774.a1, 2 µM, time 1-12 hrs
[6] = tested on: THP-1; experiment: Inhibition of p20 fragment of IL-1beta protein expression in LPS/MSU stimulated human THP-1 cells supernatant by Western blotting analysis; assay type: functional, cell-based
[7] = Acute toxicity in Kunming mouse assessed as liver damage at 100 mg/kg, ip administered for 14 days; assay type: organism-based; conditions: in vivo, 336 h, time 14 day
[8] = tested on: Mus musculus; experiment: (§1) Anti-inflammatory activity in MSU/C18:0 free fatty acid induced Kunming mouse model of gouty arthritis assessed as reduction IL-1beta release at 5 to 20 mg/kg, ip preadministered with compound for 30 mins followed by MSU/C18:0 free fatty acid injection and measured after 24 hrs by ELISA; assay type: functional, organism-based; conditions: dose 5-20 mg/kg, time 24.5 hrs
[9] = target: T1, Caspase-7 (Mus musculus) (UniProt P97864); experiment: Inhibition of cisplatin induced caspase-7 activation in mouse J774.A1 cells at 2 uM preincubated for 30 mins followed by cisplatin addition and incubated overnight; assay type: cell-based
T1 sequence (whole entry): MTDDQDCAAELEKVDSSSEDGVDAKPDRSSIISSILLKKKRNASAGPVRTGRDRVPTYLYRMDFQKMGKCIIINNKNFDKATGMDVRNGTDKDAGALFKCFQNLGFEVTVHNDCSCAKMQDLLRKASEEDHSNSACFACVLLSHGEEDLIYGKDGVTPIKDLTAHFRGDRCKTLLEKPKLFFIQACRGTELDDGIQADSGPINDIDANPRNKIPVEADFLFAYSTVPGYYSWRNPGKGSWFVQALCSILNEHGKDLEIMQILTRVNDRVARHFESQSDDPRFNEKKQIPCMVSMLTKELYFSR

[10] = target: NACHT, LRR and PYD domains-containing protein 3 (Mus musculus) (UniProt Q8R4B8); experiment: Inhibition of NLRP3 inflammasome activation in LPS primed Casp1 knockout mouse BMDM cells transfected with caspase-1 C285A mutant assessed as reduction in IL-1beta release at 2 uM preincubated for 30 mins followed by nigericin stimulation; assay type: cell-based
[11] = target: NACHT, LRR and PYD domains-containing protein 3 (Mus musculus) (UniProt Q8R4B8); experiment: Inhibition of NLRP3 inflammasome activation in mouse J774.A1 cells assessed as reduction in TNF-alpha release at 0.5 to 2 uM preincubated for 30 mins followed by LPS stimulation for 6 hrs; assay type: cell-based; conditions: dose 0.5-2 µM, time 6.5 hrs
[12] = tested on: Mus musculus; experiment: as §1, with “effect on pro-caspase-1 expression” for “reduction IL-1beta release”, “Western blotting analysis” for “ELISA”; assay type: functional, organism-based; conditions: dose 5-20 mg/kg, time 24.5 hrs
[13] = species on record: Mus musculus; experiment: Inhibition of pain perception in MSU/C18:0 free fatty acid induced wild type mouse measured upto 24 hrs; assay type: functional, organism-based
[14] = tested on: THP-1; experiment: Effect on pro-1L-1beta protein expression in LPS/MSU stimulated human THP-1 cells supernatant by Western blotting analysis; assay type: functional, cell-based
[15] = target: NACHT, LRR and PYD domains-containing protein 3 (Mus musculus) (UniProt Q8R4B8); experiment: Inhibition of NLRP3 inflammasome activation in mouse BMDMs assessed as reduction in IL-1beta production at 0.5 to 2 uM pretreated with pam3CSK4 for 3 hrs followed by compound addition for 30 mins prior to cytosolic LPS stimulation for 16 hrs by ELISA; assay type: cell-based; conditions: BMDM, dose 0.5-2 µM, time 16.5 hrs
[16] = tested on: Caspase-1 (Homo sapiens), P29466 [C270A]; experiment: Inhibition of recombinant caspase-1 C270A mutant (unknown origin) at 100 uM relative to control
Chain of Caspase-1 (Homo sapiens), P29466 [C270A] (P29466 whole entry C270A): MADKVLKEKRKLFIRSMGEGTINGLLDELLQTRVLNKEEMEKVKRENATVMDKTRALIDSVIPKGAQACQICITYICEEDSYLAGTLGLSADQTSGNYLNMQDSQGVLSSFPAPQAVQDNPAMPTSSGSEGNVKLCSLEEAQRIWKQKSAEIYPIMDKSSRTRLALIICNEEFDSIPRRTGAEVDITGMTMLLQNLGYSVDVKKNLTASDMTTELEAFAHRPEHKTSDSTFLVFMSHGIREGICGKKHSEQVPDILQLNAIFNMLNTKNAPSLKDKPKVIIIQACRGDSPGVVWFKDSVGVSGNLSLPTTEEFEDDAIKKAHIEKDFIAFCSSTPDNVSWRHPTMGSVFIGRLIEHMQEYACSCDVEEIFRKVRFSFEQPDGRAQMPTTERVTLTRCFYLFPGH

[17] = tested on: J774.A1; experiment: Inhibition of pyroptosis in mouse J774.A1 cells assessed as reduction in number of annexin V and PI positive cells pretreated with LPS for 3 hrs followed by compound addition in presence of nigericin by flow cytometry analysis; assay type: functional, cell-based
[18] = tested on: Caspase-1 (Homo sapiens), P29466 [C169A]; experiment: Binding affinity to recombinant caspase-1 C169A mutant (unknown origin) at 2 uM by SDS-PAGE analysis
Chain of Caspase-1 (Homo sapiens), P29466 [C169A] (P29466 whole entry C169A, the tested form may be a part): as the sequence (P29466 whole entry C270A) above, with C169A, A270C counted along it

[19] = target: NACHT, LRR and PYD domains-containing protein 3 (Mus musculus) (UniProt Q8R4B8); experiment: Inhibition of NLRP3 inflammasome activation in LPS/nigericin stimulated mouse J774.A1 cells assessed as reduction in IL-18 production pretreated with LPS for 3 hrs prior to compound addition for 30 mins followed by nigericin addition and measured after 45 mins by ELISA; assay type: cell-based; conditions: time 75.0 min
[20] = tested on: J774.A1; experiment: Inhibition of pyroptosis in mouse J774.A1 cells assessed as reduction in number of propidium iodide positive cells at 0.5 to 2 uM pretreated with LPS for 3 hrs followed by compound addition in presence of nigericin by flow cytometry analysis; assay type: functional, cell-based; conditions: dose 0.5-2 µM

## COc1ccc2c(c1)[C@]1(C=C[C@H](N=C=S)C[C@H]1C(=O)OC(C)(C)C)C(=O)N2C(=O)OCc1ccccc1
[1]
  Activity: inactive
[2]
  Activity: inactive
[3]
  inhibition: Active
[4]
  inhibition: Dose-Dependent Effect
[5]
  Activity: Non-Toxic
[6]
  inhibition: Active
[7]
  Activity: Non-Toxic
[8]
  Activity: Active
[9]
  inhibition: inactive
[10]
  inhibition: inactive
[11]
  inhibition: Active
[12]
  Activity: inactive
[13]
  inhibition: Active
[14]
  Activity: inactive
[15]
  inhibition: Active
[16]
  inhibition: inactive
[17]
  inhibition: Active
[18]
  Activity: Active
[19]
  inhibition: Dose-Dependent Effect
[20]
  inhibition: Active
